Data reported in ChEMBL document CHEMBL1123899, “Nucleic acid related compounds. 51. Synthesis and biological properties of sugar-modified analogues of the nucleoside antibiotics tubercidin, toyocamycin, sangivamycin, and formycin” (1987).
≈ marks a conversion by molar mass, not a printed value.

These molecules were tested on Vaccinia virus (assay: Minimum inhibitory concentration required to reduce vaccinia virus(VV) induced cytopathogenicity by 50%). Conditions: Orthopoxvirus vaccinia.
Type: functional

Structure (SMILES) | MIC50
N#Cc1cn(C2OC(CO)CC2O)c2ncnc(N)c12 (configuration not stated) | 0.1 mg/L (≈ 0.363 µM)
Nc1ncnc2c1ccn2C1OC(CO)CC1O (configuration not stated) | 1.5 mg/L (≈ 5.99 µM)
Nc1ncnc2c(C3OC(CO)CC3O)n[nH]c12 (configuration not stated) | > 400 mg/L
NC(=O)c1cn([C@@H]2O[C@H](CO)[C@@H](O)[C@@H]2O)c2ncnc(N)c12 | 0.2 mg/L (≈ 0.647 µM)
Nc1ncnc2c1ccn2[C@@H]1O[C@H](CO)[C@H](O)[C@H]1O | 0.03 mg/L (≈ 0.113 µM)
Nc1ncnc2c1ccn2[C@@H]1O[C@H](CO)[C@@H](O)[C@@H]1O | 40 mg/L (≈ 150 µM)
Nc1ncnc2c([C@H]3C[C@H](O)[C@@H](CO)O3)n[nH]c12 | > 400 mg/L
NC(=O)c1cn([C@H]2C[C@H](O)[C@@H](CO)O2)c2ncnc(N)c12 | 0.4 mg/L (≈ 1.36 µM)
N#Cc1cn([C@H]2C[C@H](O)[C@@H](CO)O2)c2ncnc(N)c12 | 0.1 mg/L (≈ 0.363 µM)
N#Cc1cn([C@@H]2O[C@H](CO)[C@@H](O)[C@@H]2O)c2ncnc(N)c12 | 1 mg/L (≈ 3.43 µM)
NC(=O)c1cn(C2OC(CO)CC2O)c2ncnc(N)c12 (configuration not stated) | 2 mg/L (≈ 6.82 µM)
Nc1ncnc2c1ccn2[C@H]1C[C@H](O)[C@@H](CO)O1 [2'-Deoxytubercidin] | 10 mg/L (≈ 40 µM)
Nc1ncnc2c([C@@H]3O[C@H](CO)[C@@H](O)[C@H]3O)[nH]nc12 [FORMYCIN] | 7 mg/L (≈ 26.2 µM)
NC(=O)c1ncn([C@@H]2O[C@H](CO)[C@@H](O)[C@H]2O)n1 [RIBAVIRIN] | 20 mg/L (≈ 81.9 µM)
NC(=O)c1cn([C@@H]2O[C@H](CO)[C@@H](O)[C@H]2O)c2ncnc(N)c12 [SANGIVAMYCIN] | 0.02 mg/L (≈ 0.0647 µM)
N#Cc1cn([C@@H]2O[C@H](CO)[C@@H](O)[C@H]2O)c2ncnc(N)c12 [TOYOCAMYCIN] | > 0.04 mg/L
Nc1ncnc2c1ccn2[C@@H]1O[C@H](CO)[C@@H](O)[C@H]1O [TUBERCIDIN] | 0.007 mg/L (≈ 0.0263 µM)
